Measured values: paper PMC4104029, “Mechanism of Action of Compound-13: An α1-Selective Small Molecule Activator of AMPK” (Chemistry & Biology, 2014)
Where two headings read alike, the source gives them in different places.

Experiments:
[1] = test system: panel of 138 protein kinases; experiment: Kinase inhibition screen; assay type: biochemical; conditions: 10 μM
Protocol: Supplemental Figure Legends:
Figure S1, related to Figures 1-3. Subunit composition of AMPK preparations used in this study. (A) Heterotrimeric AMPK complexes (10 ng) produced in both Sf9 (Sigma and Signalchem) and E.coli (in our laboratory) were analysed by Western blotting using isoform specific antibodies. Note that both the α2/α1-HOOK and α2/α1-LOOP chimeras are no longer recognised by the anti-α2 antibody as the epitope has been replaced (see Fig S4). (B) Heterotrimeric AMPK α2/α1 chimeric complexes expressed in E.coli (2 μg) were separated by SDS-PAGE and stained with Coomassie G-250. Arrows indicate the position of the […]
Figure S2, related to Figure 1. C2 has negligible effects on a panel of 138 protein kinases.
Kinase inhibition screen was performed by the International Centre for Kinase profiling (Dundee). Assays were performed in duplicate using 10 µM C2 and are representative of two independent screens. Results are shown in rank order as mean % activity compared with controls in the absence of compound ± SD. […]
Figure S3, related to Figure 2. […] Results are expressed as mean Pi incorporated in nmol.min-1.mg-1 ± SD. […] Results are expressed as fold increase in activity relative to controls in the absence of compound ± SD.
(E) C2 and AMP displace a GST-AMPKγ2 subunit fusion from ATP-γ-Sepharose. […] The presence of eluted AMPKγ2 was analysed by SDS-PAGE and staining with colloidal Coomassie. […]

[2] = test system: human AMPK; parameters: method as in Gómez-Galeno et al., 2010; conditions: isoform combination not specified; ref Gómez-Galeno et al., 2010; read-out: half-maximal effective concentration (EC50); cited from earlier work
[3] = test system: primary mouse hepatocytes (WT); experiment: Lipid synthesis, [1-14C]acetate incorporation; assay type: cell-based; conditions: for IC50: Mus musculus, Hepatocyte
Protocol: Figure 5 C13 Inhibits Lipid Synthesis and Fatty Acid Esterification in Mouse Hepatocytes in an AMPK-Dependent Manner (A) Mouse hepatocytes were treated with the indicated concentrations of C13 and labeled with [1-^14C]acetate for 3 hr. A769662 (100 μM) and AICAR (0.5 mM) were included as positive controls. Rates of fatty acid and sterol synthesis were estimated by incorporation into saponifiable and nonsaponifiable lipids. Results are expressed as the mean acetate incorporated in micromoles per gram-hour ± SD and are representative of two independent experiments. (B) Mouse hepatocytes were treated with the indicated compounds for 30 min and labeled with media containing 0.5 mM palmitic acid (1 mCi⋅mmol^−1 [9,10-^3H]palmitic acid) for an additional 60 min. Incorporation into triglyceride was determined as described in Experimental Procedures and results are expressed as palmitate incorporated in micromoles per gram-hour ± SD and are representative of three independent experiments. (C and D) Mouse hepatocytes from WT or AMPK-null (AMPKα1^−/− -α2^−/−) mice were incubated with the indicated concentrations of C13 and labeled with [1-^14C]acetate for 3 hr. Rates of fatty acid and sterol synthesis were estimated from incorporation into saponifiable (C) and nonsaponifiable (D) lipids. Results are expressed as percentage WT vehicle and represent the mean ± SD for three independent experiments. (E) Hepatocytes were treated with the indicated concentrations of C13 for 3 hr, and lysates were blotted with the indicated antibodies.
Lipid synthesis was determined by labeling adherent cultures of primary hepatocytes with [1-^14C]acetate. After overnight culture, hepatocytes (5 × 10^5) were washed with warm PBS and allowed to rest for 3 hr in fresh M199. Cells were treated with vehicle (0.1% DMSO) or the indicated compounds and labeled with 1 mCi⋅mmol^−1 [1-^14C]acetate for 3 hr. Cells were washed with ice-cold PBS, gently scraped into 0.5 ml PBS and saponified in methanolic KOH at 80°C for 1 hr. Nonsaponifiable and saponifiable lipids were extracted with petroleum ether before and after acidification with HCl. Lipid fractions were washed with 5% HAc, dried using N2, and dissolved in scintillant for the determination of [^14C] incorporation. Lipogenesis in hepatocytes from AMPKβ1/β2-KO mice was determined in media containing [^3H]acetate (0.2 mCi⋅mmol^−1). After 4 hr labeling, total lipids were extracted using the method of [Bligh and Dyer (1959)], and incorporated [^3H] was determined by scintillation counting. The results are expressed as micromoles acetate incorporated per gram-hour.

Compound | effect on upstream kinases of AMPK ([1]; LKB1, CaMKKβ, and TAK1) | effect on kinase activity ([1]; includes AMPK-related kinase family) | EC50 [2] [µM] | reduction of lipid synthesis ([3]; 1 μM, WT cells) | IC50 ([3]; [14C]acetate, 3 hr, read-out: IC50, inhibition of lipid synthesis, nonsaponifiable lipids) [µM] | IC50 ([3]; [14C]acetate, 3 hr, read-out: IC50, inhibition of lipid synthesis, saponifiable lipids) [µM] | concentration of maximal effect on lipid synthesis ([3]; [14C]acetate, 3 hr) [µM] | potency relative to A769662 ([3]; similar inhibition with 3 μM C13 and 100 μM A769662)
O=P(O)(O)c1ccc(-c2cc(O)on2)o1 [Compound C2, 5-(5-hydroxyl-isoxazol-3-yl)-furan-2-phosphonic acid] | did not affect | majority were not affected | 0.0063 | – | – | – | – | –
CC(C)C(=O)OCOP(=O)(OCOC(=O)C(C)C)c1ccc(C2=NOC(=O)C2)o1 [Compound C13] | – | – | – | about 40% | 1.5 | 1.7 | 30 | ≈ 30 fold
